Reference: USRE44733E1, “6-mercapto-cyclodextrin derivatives:reversal agents for drug-induced neuromuscular block” (Merck Sharp & Dohme B.V., priority 1999, dated 2014)

Tested on: neuromuscular block, induced by the muscle relaxant rocuronium bromide (Roc)
Assay: Reversal of neuromuscular blockade in anaesthetized guinea pigs in vivo
Conditions: for concentration at maximum reversal (at conc.) / % max reversal: anaesthetized guinea pigs, rocuronium bromide steady-state block; for concentration at maximum reversal (at conc.): dose of reversal agent at which % max reversal was seen; for % max reversal: maximum reversal; for ED50: dose producing 50% reversal of steady-state neuromuscular block: anaesthetized male Dunkin-Hartley guinea pigs, steady-state block of 85-90% by continuous rocuronium bromide infusion, reversal agent given by jugular vein catheter, M. gastrocnemius contractions
Experimental: Reversal of Neuromuscular Blockade in Anaesthetized Guinea Pigs in vivo
Male Dunkin-Hartley guinea pigs (bodyweight: 600-900 g) were anaesthetized by i.p. administration of 10 mg/kg pentobarbitone and 1000 mg/kg urethane. After tracheotomy, the animals were artificially ventilated using a Harvard small animal ventilator. A catheter was placed into the carotid artery for continuous monitoring of arterial blood pressure and the taking of blood samples for blood gas analysis. Heart rate was derived from the blood pressure signal. The sciatic nerve was stimulated (rectangular pulses of 0.5 ms duration at 10 s (0.1 Hz) intervals at a supramaximal voltage, using a Grass S88 Stimulator) and the force of M. gastrocnemius contractions was measured using a Grass FT03 force-displacement transducer. Contractions, blood pressure and heart rate were recorded on a multichannel Grass 7D recorder. Catheters were placed in both jugular veins. One catheter was used for the continuous infusion of a neuromuscular blocking agent. The infusion rate of the neuromuscular blocking agent was increased until a steady-state block of 85-90% was obtained. The other catheter was used for administration of increasing doses of the reversal agent. During continuous infusion of the neuromuscular blocking agent, single doses of increasing concentration of reversal agent were given. At the end of the experiment, the measured force of muscle contractions was plotted against the concentration of reversal agent, and using regression analysis techniques, the 50% reversal concentration was calculated. Results for the reversal of the neuromuscular block, induced by the muscle relaxant rocuronium bromide (Roc), by the 6-mercapto-cyclodextrin derivatives of Examples 1-19 are presented in Table I. For comparison, the reversal activity of the parent compounds β-cyclodextrin and γ-cyclodextrin are included as well.

SMILES	concentration at maximum reversal (at conc.)	% max reversal [%]	ED50: dose producing 50% reversal of steady-state neuromuscular block [µmol/kg]
O=C([O-])c1ccc(SCC2OC3OC4C(CO)OC(OC5C(CO)OC(OC6C(CO)OC(OC7C(CO)OC(OC8C(CO)OC(OC9C(CO)OC(OC%10C(CO)OC(OC2C(O)C3O)C(O)C%10O)C(O)C9O)C(O)C8O)C(O)C7O)C(O)C6O)C(O)C5O)C(O)C4O)cc1.[Na+] (stereo not drawn) [example 1, 6-mono-Deoxy-6-mono-(4-carboxyphenyl)thio-γ-cyclodextrin, Sodium Salt]	(8.0) μmol · kg^−1	102	0.94
O=C([O-])c1ccccc1SC[C@H]1O[C@@H]2O[C@H]3[C@H](O)[C@@H](O)[C@@H](O[C@H]4[C@H](O)[C@@H](O)[C@@H](O[C@H]5[C@H](O)[C@@H](O)[C@@H](O[C@H]6[C@H](O)[C@@H](O)[C@@H](O[C@H]7[C@H](O)[C@@H](O)[C@@H](O[C@H]8[C@H](O)[C@@H](O)[C@@H](O[C@H]9[C@H](O)[C@@H](O)[C@@H](O[C@H]1[C@H](O)[C@H]2O)O[C@@H]9CO)O[C@@H]8CO)O[C@@H]7CO)O[C@@H]6CO)O[C@@H]5CO)O[C@@H]4CO)O[C@@H]3CO.[Na+] [example 2, 6mono-Deoxy-6-mono-(2-carboxyphenyl)thio-γ-cyclodextin, Sodium Salt]	(11) μmol · kg^−1	93	1.30
O=C([O-])c1cccc(SCC2OC3OC4C(CSc5cccc(C(=O)[O-])c5)OC(OC5C(CSc6cccc(C(=O)[O-])c6)OC(OC6C(CSc7cccc(C(=O)[O-])c7)OC(OC7C(CSc8cccc(C(=O)[O-])c8)OC(OC8C(CSc9cccc(C(=O)[O-])c9)OC(OC9C(CSc%10cccc(C(=O)[O-])c%10)OC(OC%10C(CSc%11cccc(C(=O)[O-])c%11)OC(OC2C(O)C3O)C(O)C%10O)C(O)C9O)C(O)C8O)C(O)C7O)C(O)C6O)C(O)C5O)C(O)C4O)c1.[Na+].[Na+].[Na+].[Na+].[Na+].[Na+].[Na+].[Na+] (stereo not drawn) [example 3, 6-Per-deoxy-6-per-(3-carboxyphenyl)thio-γ-cyclodextrin, Sodium Salt]	(1.28) μmol · kg^−1	102	0.28
O=C([O-])CCSC[C@H]1O[C@@H]2O[C@H]3[C@H](O)[C@@H](O)[C@@H](O[C@H]4[C@H](O)[C@@H](O)[C@@H](O[C@H]5[C@H](O)[C@@H](O)[C@@H](O[C@H]6[C@H](O)[C@@H](O)[C@@H](O[C@H]7[C@H](O)[C@@H](O)[C@@H](O[C@H]8[C@H](O)[C@@H](O)[C@@H](O[C@H]9[C@H](O)[C@@H](O)[C@@H](O[C@H]1[C@H](O)[C@H]2O)O[C@@H]9CSCCC(=O)[O-])O[C@@H]8CSCCC(=O)[O-])O[C@@H]7CSCCC(=O)[O-])O[C@@H]6CSCCC(=O)[O-])O[C@@H]5CSCCC(=O)[O-])O[C@@H]4CSCCC(=O)[O-])O[C@@H]3CSCCC(=O)[O-].[Na+].[Na+].[Na+].[Na+].[Na+].[Na+].[Na+].[Na+] [example 4, 6-Per-deoxy-6-per-(2-carboxyethyl)thio-γ-cyclodextrin, Sodium Salt]	(0.53) μmol · kg^−1	97	0.09
O=C([O-])CCCCCSC[C@H]1O[C@@H]2O[C@H]3[C@H](O)[C@@H](O)[C@@H](O[C@H]4[C@H](O)[C@@H](O)[C@@H](O[C@H]5[C@H](O)[C@@H](O)[C@@H](O[C@H]6[C@H](O)[C@@H](O)[C@@H](O[C@H]7[C@H](O)[C@@H](O)[C@@H](O[C@H]8[C@H](O)[C@@H](O)[C@@H](O[C@H]9[C@H](O)[C@@H](O)[C@@H](O[C@H]1[C@H](O)[C@H]2O)O[C@@H]9CSCCCCCC(=O)[O-])O[C@@H]8CSCCCCCC(=O)[O-])O[C@@H]7CSCCCCCC(=O)[O-])O[C@@H]6CSCCCCCC(=O)[O-])O[C@@H]5CSCCCCCC(=O)[O-])O[C@@H]4CSCCCCCC(=O)[O-])O[C@@H]3CSCCCCCC(=O)[O-].[Na+].[Na+].[Na+].[Na+].[Na+].[Na+].[Na+].[Na+] [example 5, 6-Per-deoxy-6-per-(5-carboxypentyl)thio-γ-cyclodextrin, Sodium Salt]	(2.5) μmol · kg^−1	78	0.74
O=C([O-])CCCSC[C@H]1O[C@@H]2O[C@H]3[C@H](O)[C@@H](O)[C@@H](O[C@H]4[C@H](O)[C@@H](O)[C@@H](O[C@H]5[C@H](O)[C@@H](O)[C@@H](O[C@H]6[C@H](O)[C@@H](O)[C@@H](O[C@H]7[C@H](O)[C@@H](O)[C@@H](O[C@H]8[C@H](O)[C@@H](O)[C@@H](O[C@H]9[C@H](O)[C@@H](O)[C@@H](O[C@H]1[C@H](O)[C@H]2O)O[C@@H]9CSCCCC(=O)[O-])O[C@@H]8CSCCCC(=O)[O-])O[C@@H]7CSCCCC(=O)[O-])O[C@@H]6CSCCCC(=O)[O-])O[C@@H]5CSCCCC(=O)[O-])O[C@@H]4CSCCCC(=O)[O-])O[C@@H]3CSCCCC(=O)[O-].[Na+].[Na+].[Na+].[Na+].[Na+].[Na+].[Na+].[Na+] [example 6, 6-Per-deoxy-6-per-(3carboxypropyl)thio-γ-cyclodextrin, Sodium Salt]	(0.48) μmol · kg^−1	108	0.09
O=C([O-])CSC[C@H]1O[C@@H]2O[C@H]3[C@H](O)[C@@H](O)[C@@H](O[C@H]4[C@H](O)[C@@H](O)[C@@H](O[C@H]5[C@H](O)[C@@H](O)[C@@H](O[C@H]6[C@H](O)[C@@H](O)[C@@H](O[C@H]7[C@H](O)[C@@H](O)[C@@H](O[C@H]8[C@H](O)[C@@H](O)[C@@H](O[C@H]9[C@H](O)[C@@H](O)[C@@H](O[C@H]1[C@H](O)[C@H]2O)O[C@@H]9CSCC(=O)[O-])O[C@@H]8CSCC(=O)[O-])O[C@@H]7CSCC(=O)[O-])O[C@@H]6CSCC(=O)[O-])O[C@@H]5CSCC(=O)[O-])O[C@@H]4CSCC(=O)[O-])O[C@@H]3CSCC(=O)[O-].[Na+].[Na+].[Na+].[Na+].[Na+].[Na+].[Na+].[Na+] [example 7, 6-Per-deoxy-6-per-carboxymethylthio-γ-cyclodextrin, Sodium Salt]	(1.92) μmol · kg^−1	88	0.21
O=C([O-])c1ccc(SC[C@H]2O[C@@H]3O[C@H]4[C@H](O)[C@@H](O)[C@@H](O[C@H]5[C@H](O)[C@@H](O)[C@@H](O[C@H]6[C@H](O)[C@@H](O)[C@@H](O[C@H]7[C@H](O)[C@@H](O)[C@@H](O[C@H]8[C@H](O)[C@@H](O)[C@@H](O[C@H]9[C@H](O)[C@@H](O)[C@@H](O[C@H]%10[C@H](O)[C@@H](O)[C@@H](O[C@H]2[C@H](O)[C@H]3O)O[C@@H]%10CSc2ccc(C(=O)[O-])cc2)O[C@@H]9CSc2ccc(C(=O)[O-])cc2)O[C@@H]8CSc2ccc(C(=O)[O-])cc2)O[C@@H]7CSc2ccc(C(=O)[O-])cc2)O[C@@H]6CSc2ccc(C(=O)[O-])cc2)O[C@@H]5CSc2ccc(C(=O)[O-])cc2)O[C@@H]4CSc2ccc(C(=O)[O-])cc2)cc1.[Na+].[Na+].[Na+].[Na+].[Na+].[Na+].[Na+].[Na+] [example 8, 6-Per-deoxy-6-per-(4-carboxyphenyl)thio-γ-cyclodextrin, Sodium Salt]	(0.48) μmol · kg^−1	95	0.10
O=C([O-])Cc1ccc(SC[C@H]2O[C@@H]3O[C@H]4[C@H](O)[C@@H](O)[C@@H](O[C@H]5[C@H](O)[C@@H](O)[C@@H](O[C@H]6[C@H](O)[C@@H](O)[C@@H](O[C@H]7[C@H](O)[C@@H](O)[C@@H](O[C@H]8[C@H](O)[C@@H](O)[C@@H](O[C@H]9[C@H](O)[C@@H](O)[C@@H](O[C@H]%10[C@H](O)[C@@H](O)[C@@H](O[C@H]2[C@H](O)[C@H]3O)O[C@@H]%10CSc2ccc(CC(=O)[O-])cc2)O[C@@H]9CSc2ccc(CC(=O)[O-])cc2)O[C@@H]8CSc2ccc(CC(=O)[O-])cc2)O[C@@H]7CSc2ccc(CC(=O)[O-])cc2)O[C@@H]6CSc2ccc(CC(=O)[O-])cc2)O[C@@H]5CSc2ccc(CC(=O)[O-])cc2)O[C@@H]4CSc2ccc(CC(=O)[O-])cc2)cc1.[Na+].[Na+].[Na+].[Na+].[Na+].[Na+].[Na+].[Na+] [example 9, 6-Per-deoxy-6-per-(4-carboxymethylphenyl)thio-γ-cyclodextrin, Sodium Salt]	(0.50) μmol · kg^−1	100	0.13
NC(=O)CCCSCC1OC2OC3C(CSCCCC(N)=O)OC(OC4C(CSCCCC(N)=O)OC(OC5C(CSCCCC(N)=O)OC(OC6C(CSCCCC(N)=O)OC(OC7C(CSCCCC(N)=O)OC(OC8C(CSCCCC(N)=O)OC(OC9C(CSCCCC(N)=O)OC(OC1C(O)C2O)C(O)C9O)C(O)C8O)C(O)C7O)C(O)C6O)C(O)C5O)C(O)C4O)C(O)C3O (stereo not drawn) [example 10, 6-Per-deoxy-6-per(3-amidopropyl)thio-γ-cyclodextrin]	(33) μmol · kg^−1	94	0.57
